Values joined by “and” are separate entries in the source; they are usually repeats but may differ in a detail not shown here. Equal values may be shown once. Inconclusive results and toxic doses are left out. Rule as the data show it: active = T/C of 150% or more; inactive = T/C below 125%.
Tested on: L1210 leukemia ip in BDF1 mice, survival T/C
Test: NCI In Vivo Anticancer Drug Screen. Data for tumor model L1210 Leukemia (intraperitoneal) in B6D2F1 (BDF1) mice
Details: endpoint: mean survival time, higher = longer survival
Method in brief: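 Each compound was tested against a transplantable tumor grown in mice. The endpoint was survival, with treated animals benchmarked against vehicle controls as a simple ratio.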

[1] = dose: 100.0 mg/kg/injection, schedule: Q01DX001 (ip), vehicle: saline
[2] = dose: 200.0 mg/kg/injection, schedule: Q01DX001 (ip), vehicle: saline
[3] = dose: 100.0 mg/kg/injection, schedule: Q01DX009 (ip), vehicle: Klucel (hydroxypropylcellulose) (HPC)
[4] = dose: 200.0 mg/kg/injection, schedule: Q01DX009 (ip), vehicle: Klucel (hydroxypropylcellulose) (HPC)
[5] = dose: 100.0 mg/kg/injection, schedule: Q01DX001 (ip), vehicle: carboxymethylcellulose (CMC)
[6] = dose: 100.0 mg/kg/injection, schedule: Q04DX003 (ip), vehicle: Klucel (hydroxypropylcellulose) (HPC)
[7] = dose: 200.0 mg/kg/injection, schedule: Q01DX001 (ip), vehicle: carboxymethylcellulose (CMC)
[8] = dose: 200.0 mg/kg/injection, schedule: Q04DX003 (ip), vehicle: Klucel (hydroxypropylcellulose) (HPC)
[9] = dose: 400.0 mg/kg/injection, schedule: Q04DX003 (ip), vehicle: Klucel (hydroxypropylcellulose) (HPC)
[10] = dose: 100.0 mg/kg/injection, schedule: Q04DX002 (ip), vehicle: saline
[11] = dose: 25.0 mg/kg/injection, schedule: Q04DX002 (ip), vehicle: Klucel (hydroxypropylcellulose) (HPC)
[12] = dose: 50.0 mg/kg/injection, schedule: Q04DX002 (ip), vehicle: Klucel (hydroxypropylcellulose) (HPC)
[13] = dose: 100.0 mg/kg/injection, schedule: Q04DX002 (ip), vehicle: Klucel (hydroxypropylcellulose) (HPC)

Measured: T/C

O=C(O)/C(S)=C\c1ccc(Cl)cc1
inactive: [1] 97 % of control | [2] 94 % of control

COC(=N)Cc1ccccc1
inactive: dose: 75.0 mg/kg/injection, schedule: Q01DX009 (ip), vehicle: saline with Tween-80 100 % of control | dose: 150.0 mg/kg/injection, schedule: Q01DX009 (ip), vehicle: saline with Tween-80 101 % of control | dose: 300.0 mg/kg/injection, schedule: Q01DX009 (ip), vehicle: saline with Tween-80 101 % of control

O=C(NCCF)NC1C=CCCC1 (stereo not drawn)
inactive: dose: 75.0 mg/kg/injection, schedule: Q01DX001 (ip), vehicle: other 100 % of control | dose: 150.0 mg/kg/injection, schedule: Q01DX001 (ip), vehicle: other 95 % of control | dose: 300.0 mg/kg/injection, schedule: Q01DX001 (ip), vehicle: other 94 % of control

CCCCC(CCCC)c1cc[n+](CC(=O)c2ccccc2)cc1
inactive: dose: 12.5 mg/kg/injection, schedule: Q01DX001 (ip), vehicle: saline 106 % of control | dose: 50.0 mg/kg/injection, schedule: Q01DX001 (ip), vehicle: saline 97 % of control

CCOC(=O)/C(C#N)=C(\C)CC(C)C
inactive: dose: 5.0 mg/kg/injection, schedule: Q01DX001 (ip), vehicle: saline 101 % of control | dose: 10.0 mg/kg/injection, schedule: Q01DX001 (ip), vehicle: saline 95 % of control | dose: 20.0 mg/kg/injection, schedule: Q01DX001 (ip), vehicle: saline 95 % of control | dose: 40.0 mg/kg/injection, schedule: Q01DX001 (ip), vehicle: saline 98 % of control | dose: 80.0 mg/kg/injection, schedule: Q01DX001 (ip), vehicle: saline 101 % of control | [1] 98 % of control

CC1([N+](=O)[O-])COC2(CCCCC2)OC1
inactive: dose: 50.0 mg/kg/injection, schedule: Q01DX009 (ip), vehicle: Klucel (hydroxypropylcellulose) (HPC) 100 % of control | [3] 96 % of control | [4] 91 % of control

CC(C)(NCc1ccccc1)C(=O)c1ccccc1
inactive: dose: 50.0 mg/kg/injection, schedule: Q01DX001 (ip), vehicle: carboxymethylcellulose (CMC) 100 % of control | dose: 50.0 mg/kg/injection, schedule: Q04DX003 (ip), vehicle: Klucel (hydroxypropylcellulose) (HPC) 95 % of control | [5] 102 % of control | [3] 105 % of control | [6] 93 % of control | [7] 90 % of control | [8] 95 % of control

O=C(O)c1c(F)c(F)c(Oc2c(F)c(F)c(F)c(Oc3c(F)c(F)c(C(=O)O)c(F)c3F)c2F)c(F)c1F
inactive: [3] 107 % of control | [6] 100 % of control | [4] 98 % of control | [8] 97 % of control

CS(=O)(=O)c1nnc(-c2ccccc2)s1
inactive: dose: 50.0 mg/kg/injection, schedule: Q01DX009 (ip), vehicle: saline with Tween-80 93 % of control | [3] 97 % of control | dose: 100.0 mg/kg/injection, schedule: Q01DX009 (ip), vehicle: saline with Tween-80 96 % of control and 90 % of control | [4] 94 % of control | dose: 200.0 mg/kg/injection, schedule: Q01DX009 (ip), vehicle: saline with Tween-80 93 % of control and 90 % of control

CN(C)/N=C/c1ccccn1
inactive: dose: 100.0 mg/kg/injection, schedule: Q04DX003 (ip), vehicle: saline 106 % of control | dose: 200.0 mg/kg/injection, schedule: Q04DX003 (ip), vehicle: saline 109 % of control

CC(O)(c1ccccc1)C(C)(O)c1ccccc1 (stereo not drawn)
inactive: dose: 50.0 mg/kg/injection, schedule: Q04DX002 (ip), vehicle: saline with Tween-80 114 % of control | dose: 100.0 mg/kg/injection, schedule: Q04DX002 (ip), vehicle: saline with Tween-80 96 % of control | dose: 200.0 mg/kg/injection, schedule: Q04DX002 (ip), vehicle: saline with Tween-80 93 % of control

Cc1ccc(C)c(OC(=O)NC2CCCCC2)c1
inactive: [3] 93 % of control | [6] 101 % of control | [4] 92 % of control | [8] 104 % of control | dose: 400.0 mg/kg/injection, schedule: Q01DX009 (ip), vehicle: Klucel (hydroxypropylcellulose) (HPC) 95 % of control | [9] 98 % of control

COC1c2ccccc2CC1(C)C (stereo not drawn)
inactive: [10] 118 % of control | dose: 200.0 mg/kg/injection, schedule: Q04DX002 (ip), vehicle: saline 105 % of control | dose: 400.0 mg/kg/injection, schedule: Q04DX002 (ip), vehicle: saline 94 % of control

CC(C)(C)C(=O)C(Br)Br
inactive: [11] 101 % of control | [12] 96 % of control | [13] 97 % of control and 101 % of control

COc1ccc(OC)c(NC(=O)c2cccc(N(CCO)CCO)c2)c1
inactive: [5] 102 % of control | [7] 94 % of control | dose: 400.0 mg/kg/injection, schedule: Q01DX001 (ip), vehicle: carboxymethylcellulose (CMC) 94 % of control

Cn1c(N)c(N=CC2CC=CCC2)c(=O)n(C)c1=O (stereo not drawn)
inactive: dose: 50.0 mg/kg/injection, schedule: Q01DX001 (ip), vehicle: other 103 % of control | dose: 100.0 mg/kg/injection, schedule: Q01DX001 (ip), vehicle: other 97 % of control | dose: 200.0 mg/kg/injection, schedule: Q01DX001 (ip), vehicle: other 92 % of control | dose: 400.0 mg/kg/injection, schedule: Q01DX001 (ip), vehicle: other 97 % of control

Cn1c(=O)c2c(ncn2CN2CCOCC2)n(C)c1=O
inactive: dose: 75.0 mg/kg/injection, schedule: Q01DX001 (ip), vehicle: saline 100 % of control | dose: 150.0 mg/kg/injection, schedule: Q01DX001 (ip), vehicle: saline 100 % of control

CC(C)(C)C(=O)Oc1ccc2ccccc2c1
inactive: dose: 75.0 mg/kg/injection, schedule: Q04DX002 (ip), vehicle: gum acacia 105 % of control | dose: 150.0 mg/kg/injection, schedule: Q04DX002 (ip), vehicle: gum acacia 92 % of control | dose: 300.0 mg/kg/injection, schedule: Q04DX002 (ip), vehicle: gum acacia 123 % of control

C/C=C\S(=O)(=O)c1ccccc1
inactive: [11] 98 % of control | [12] 98 % of control | [13] 105 % of control | dose: 200.0 mg/kg/injection, schedule: Q04DX002 (ip), vehicle: Klucel (hydroxypropylcellulose) (HPC) 89 % of control

c1ccc(-c2nc3ccccc3s2)nc1
inactive: [6] 109 % of control | [8] 98 % of control | [9] 88 % of control

CC(C)C(CCN1CCCCC1)(CN=C(N)N)c1cccc2ccccc12 (stereo not drawn)
inactive: dose: 5.0 mg/kg/injection, schedule: Q01DX009 (ip), vehicle: saline 99 % of control | dose: 6.25 mg/kg/injection, schedule: Q04DX002 (ip), vehicle: saline 100 % of control | dose: 10.0 mg/kg/injection, schedule: Q01DX009 (ip), vehicle: saline 100 % of control | dose: 12.5 mg/kg/injection, schedule: Q04DX002 (ip), vehicle: saline 93 % of control | dose: 20.0 mg/kg/injection, schedule: Q01DX009 (ip), vehicle: saline 101 % of control | dose: 25.0 mg/kg/injection, schedule: Q04DX002 (ip), vehicle: saline 97 % of control

CCN(C)CCC(C=O)(c1cccc2ccccc12)C(C)C (stereo not drawn)
inactive: [10] 100 % of control

CC(C)(O)C(O)(c1ccccc1)c1ccccc1
inactive: [1] 103 % of control | [2] 97 % of control | dose: 400.0 mg/kg/injection, schedule: Q01DX001 (ip), vehicle: saline 95 % of control

O=[N+]([O-])c1cnccc1Nc1ccncc1
inactive: dose: 100.0 mg/kg/injection, schedule: Q04DX003 (ip), vehicle: saline with Tween-80 98 % of control | dose: 200.0 mg/kg/injection, schedule: Q04DX003 (ip), vehicle: saline with Tween-80 94 % of control
